“And” between values parts separate entries of the source, which are not always exact repeats. Equal entries are not always repeated.

Series [1] concerns binding of STAT3/5 to TET1 promoter. Kind of series: ChIP-qPCR in MONOMAC-6 cells. Type of series: cell-based. Particulars: 500 nM, 48 hrs. The protocol:
ChIP assay was conducted as described previously (Barry, S. P., et al., STAT3 modulates the DNA damage response pathway, Int J Exp Pathol 91:506-14 (2010)), with SABiosciences Corporation's ChampionChIP One-Day kit (Qiagen, Frederick, Md.) following the manufacturer's protocol. Chromatin from MONOMAC-6 cells were cross-linked, sonicated into an average size of ˜500 bp, and then immunoprecipitated with antibodies against STAT3 (Santa Cruz, Dallas, Tex.), STAT5 (BD Biosciences, San Jose, Calif.), or IgG (Abcam, Cambridge, Mass.). Purified DNA was amplified by real-time qPCR using primers targeting the promoter of TET1 as described before (Huang, H., et al., TET1 plays an essential oncogenic role in MLL-rearranged leukemia, Proc Natl Acad Sci USA 110:11994-99 (2013)). Sequences of qPCR primers are: Site 1 forward: 5′-[…]-3′ (SEQ ID NO: 3), reverse: 5′-[…]-3′ (SEQ ID NO: 4); Site 2 forward: 5′-[…]-3′ (SEQ ID NO: 5), reverse: 5′-[…]-3′ (SEQ ID NO: 6); Site 3 forward: 5′-[…]-3′ (SEQ ID NO: 7), reverse: 5′-[…]-3′ (SEQ ID NO: 8); Site 4 forward: 5′-[…]-3′ (SEQ ID NO: 9); reverse: 5′-[…]-3′ (SEQ ID NO: 10).
Background: Quantitative PCR measures a nucleic acid by following its amplification.

Series [2] deals with TET1. Kind of series: TET1 expression by qPCR in AML cell lines. It counts as cell-based. The protocol:
FIG. 1. […] Cell viability was analyzed by MTS 48 hours post-treatment. […] TET1 expression levels were detected by qPCR 48 hrs post-treatment. […] TET1 expression levels (e) and cell viability (f) were detected 24 hrs post-treatment. *, P<0.05, two-tailed t-test. MM6, MONOMAC-6. Error bar indicates SD of triplicate experiments.
Total RNA was extracted with the miRNeasy extraction kit (Qiagen) and was used as template for quantitative RT-PCR (qPCR) analysis.

The subject of series [3] is normal hematopoietic stem/progenitor cells (c-Kit+ BM cells). Kind of series: MTS and apoptosis assays in normal HSPCs. It counts as cell-based, mice. Conditions: 50 nM; 3 days. How it is done:
(§1) FIG. 14. […] BM cells of leukemic mice with MLL-AF9 fusion (MA9-AML) or FLT3-ITD/NPM1^mut, and c-Kit^+ HSPCs from a pool of 6 healthy donor mice were cultured in liquid medium. […] MTS (a), apoptosis assays (b) and qPCR (c) were conducted 3 days after cell seeding or drug treatments. Error bar indicates SD of triplicate experiments.
(§2) These experiments were conducted as described previously (Jiang, X., et al., Blockade of miR-150 Maturation by MLL-Fusion/MYC/LIN-28 Is Required for MLL-Associated Leukemia, Cancer Cell 22:524-35 (2012); Li, Z., et al., miR-196b directly targets both HOXA9/MEIS1 oncogenes and FAS tumour suppressor in MLL-rearranged leukaemia, Nat Commun 2:688 (2012)) with ApoLive-Glo Multiplex Assay Kit, or CellTiter 96 AQueous Non-Radioactive Cell Proliferation Assay Kit (Promega, Madison, Wis.).

For series [4], the system named is AE9a-AML. The series can be described thus: AML-ETO9a (AE9a) AML secondary BMT mouse model. Particulars: for median survival: 2.5 mg/kg i.p. once per day for 10 days, control 46 days. Type of series: in vivo, mice. How it is done: FIG. 2. […] The secondary BMT recipient mice were transplanted with leukemic BM blast cells collected from primary MLL-AF9 AML mice. […] Kaplan-Meier curves are shown. The P values were determined by log-rank test. (b) Wright-Giemsa staining of mouse peripheral blood (PB) and BM, or hematoxylin and eosin (H&E) staining of mouse spleen and liver of the treated or control leukemic mice. (c,d) Tet1/2/3 gene expression levels (c) or Tet1 protein level (d) in BM blast cells of the treated or control leukemic mice. *, P<0.05, two-tailed t-test. Error bar indicates SD of triplicate experiments. […] The secondary BMT recipient mice were transplanted with leukemic BM blast cells collected from the primary AE9a-AML mice. […] Kaplan-Meier curves are shown. The P values were determined by log-rank test.
Secondary mouse BMT was carried out as described previously. […] For the “5+3” treatment, AraC (Cytarabine, Bedford Laboratories) and DNR (Daunorubicin, Sigma-Aldrich) were reconstituted with PBS, filtered, and stored in aliquots at −20° C. The “5+3” therapy regimen consists of five consecutive daily doses of 50 mg/kg AraC along with 3 mg/kg DNR daily during the first three days of treatment. Drugs were delivered by tail vein and intraperitoneal injection. Weights were taken daily during treatment and doses were recalculated to ensure the mice received a consistent dose of 50 mg/kg AraC and 3 mg/kg DNR every treatment.

The subject of series [5] is BM cells of leukemic mice with MLL-AF9 fusion (MA9-AML) or FLT3-ITD/NPM1^mut. The series can be described thus: MTS and apoptosis assays in BM cells of leukemic mice. It counts as cell-based. Particulars: 50 nM; 3 days. The protocol: as §1, §2

On to `COc1cc(C(c2cc3c(cc2O)OCO3)N2CCCC2)cc(OC)c1OC` (stereo not drawn) [NSC-370284, 6-(1-Pyrrolidinyl(3,4,5-trimethoxyphenyl)methyl)-1,3-benzodioxol-5-ol], for which the “binding of STAT3 and STAT5 on the TET1 loci/promoter” value in series [1] was “could be disturbed”. In addition, the TET1 transcription result in series [2] (25 nM, 24 hours, MONOMAC-6, THP-1 and KOCL-48 cells) was “significant down-regulation”. The “level of TET1 expression” value in series [2] (TET1-high AML cells, 300 nM, qPCR 48 hrs) is “significantly repressed”. Moreover, the “toxicity on normal HSPCs (viability, apoptosis)” value in series [3] was “no obvious toxicity”. Also, the median survival in series [4] is 122 days and 114 days. Moreover, the “viability of AML cells” value in series [5] is given as “dramatically suppressed”.
Take `CC(C)(C)c1cc(C(c2cc3c(cc2O)OCO3)N2CCOCC2)cc(C(C)(C)C)c1O` (stereo not drawn) [UC-514321, 6-{[4-Hydroxy-3,5-bis(2-methyl-2-propanyl)phenyl](4-morpholinyl)methyl}-1,3-benzodioxol-5-ol]: the “binding of STAT3 and STAT5 on the TET1 loci/promoter” value in series [1] is given as “remarkable repression”. The “expression of TET1, TET2, TET3” value in series [2] (MONOMAC-6 cells, 500 nM, 48 hrs) is given as “significantly repressed expression of TET1, but not TET2 or TET3”. The “toxicity on normal HSPCs (viability, apoptosis)” value in series [3] is “no obvious toxicity”. The same compound gave a median survival in series [4] of 160 days. Moreover, in series [4] (versus control, 2.5 mg/kg i.p. 10 days), the “prolongation of median survival” value was “over 3 folds”. The “viability of AML cells” value in series [5] was “dramatically suppressed”.

These data come from US11311513B2, “Methods, agents, and compositions for the treatment of acute myeloid leukemia” (UNIVERSITY OF CINCINNATI, priority 2017, dated 2022).
